Measurements published in US20100130597A1, “DNA-PKCS MODULATES ENERGY REGULATION AND BRAIN FUNCTION” (The United State of America, as represented by the …, priority 2007, published 2010).

Key:
LKB1 = LKB1 activation (LKB1 phosphorylation) in C2C12 cells; assay type: cell-based; conditions: NU7026 2.5 μM, Resveratrol 50 μM, FIG. 51A
Experimental: Cells were treated with DNA-PKcs inhibitors to ascertain whether DNA-PKcs suppresses LKB1 activity in vitro.

ATM = ATM (Homo sapiens, UniProt Q13315); conditions: related kinase, selectivity; cited from earlier work
PGC-1α = PGC-1α expression in AMPK α1/α2-null MEFs; assay type: cell-based, mouse; conditions: FIG. 53
Source text: AMPK is a heterotrimer kinase composed of a catalytic α subunit, and the β and γ regulatory subunits. There are two isoforms (α1 and α2) of the catalytic α subunit.

[1] = Glucose levels, insulin tolerance and glucose tolerance tests in treated mice; assay type: in vivo; conditions: mice, summary statement
Experimental: The therapeutic potential of DNA-PKcs inhibitors to treat insulin resistance and diabetes was tested in vivo using high-fat induced type 2 diabetes and obesity models. We examined the effects of DNA-PKcs inhibition by feeding C57BL6/J mice with Compound 36 (Cpd36) or vehicle. Mice were treated with Cpd36 (8 mg/kg body weight) twice daily by oral gavage for three months in all efficacy studies shown in FIGS. 40-47.

leukemic cells = conditions: Willmore et al. Blood 103:4659, 2004; cited from earlier work
[2] = Hot plate test, latency for pain reaction; assay type: in vivo, mice; conditions: FIG. 48E
Experimental: Epidemiological studies indicate that people with mood disorders are twice as likely to have chronic pain compared to people without mood disorders (Ohayon et al., Arch. Gen. Psychiatry 60: 39-47 (2003)). Although it is possible that pain contributes to the depressed mood, it is also possible that perception of pain is increased in people with mood disorders. To determine whether SCID mice have altered pain tolerance, the latency for pain reaction to a hot plate was measured. […] (FIG. 30) and at 55° C.
Because tolerance to pain (Example 26) is also linked to the serotonergic pathways, measurements of the latency to pain reaction on hot plate after saline, serotonin reuptake inhibitor fluoxetine (Prozac) or serotonin antagonist GR38032F (Zofran) injection were made.
(§1) Elevated plus maze tests, light/dark chamber tests, forced swim tests (FST) and hot plate tests were performed as described earlier.

Elevated plus maze test = assay type: in vivo, mice
Experimental: To evaluate whether SCID mice may also have altered anxiety, fear and depression-like traits, an elevated plus maze test was performed, which is a commonly used test to quantify the level of anxiety- and depression-like traits in rodents (Pellow et al. J. Neurosci. Methods 14: 149-67 (1985)). The elevated plus maze has narrow runways that are located 16 inches above the surface that are either closed or open. The animal is placed in the center of an elevated 4-arm maze in which 2 arms are open and 2 are enclosed. Mice generally avoid the open arms because of their fear of open space and height. The elevated plus-maze is used to determine the rodent's response to a potentially dangerous environment and anxiety-related behavior is measured by the degree to which the rodent avoids the unenclosed arms of the maze. Increase in the number of times the animal enters the open arm and the amount of time spent in the open arms reflect decreased anxiety and depression.
as §1

AMPK = AMPK activation in quiescent MCF7 cells; assay type: cell-based; conditions: 1 and 2.5 μM, FIG. 20
Experimental: MCF7 cells were obtained from the ATCC. MCF7 cells in G0 were treated with varying doses of H2O2 (FIG. 1). The cells were examined while in the G0 phase of their life cycle to mimic the post-mitotic state of cells in vivo. Low passage MCF-7 cells in G0 were exposed to varying concentrations of H2O2 for 60 minutes with or without Euk-134 or ionizing radiation (5 Gy). For Western blot analysis of DNA-PKcs activation and the activation of other signaling pathways in this study, the following antibodies were used: ACC1 (Cell Signaling); p-ACC1 (Upstate); AMP-activated protein kinase (AMPK; Cell Signaling); p-AMPK(T172) (Cell Signaling); DNA-PK (Lab Vision); p53 (Novocastra); p-DNA-PK(S2056) (Abeam); p-p53(S15) (Cell Signaling); γ-H2AX (Upstate); 53BP1 (Novus Biologicals).
ENLITEN ATP assay kit (Promega) and ApoGlow assay kit (Cambrex), respectively. […] To determine whether the AMPK-inhibitory function of DNA-PKcs is cell autonomous, quiescent MCF7 cells were treated with 1 and 2.5 μM NU7026.

Light/dark chamber test = assay type: in vivo; conditions: treated vs untreated mice
Experimental: WT and SCID mice were tested in another anxiety test using the light-dark box (Bourin and Hascoet, Eur J Pharmacol 463:55 (2003)). The light-dark box test is based on the innate aversion of rodents to brightly illuminated areas and on the spontaneous exploratory behavior of rodents in response to a mildly stressful situation, that is, a novel environment and light (Crawley and Goodwin Pharmacol Biochem Behav 13:167, 1980). In the light-dark test, increased activity in the light compartment indicates decreased anxiety.
as §1

MCF7 cells = assay: Reactive oxygen species production in MCF7 cells (CM-H2DCFDA); assay type: cell-based; conditions: NU 7026 5 μM 12 h, DNP 200 μM 10 min, Troglitazone 30 μM 4 hr, Euk-134 5 μM 3 h, MnTBAP 14 μM 3 h, FIG. 4
Source text: Measurement of intracellular reactive oxygen species was based on changes in the fluorescence intensity of redox-sensitive fluorescent probes, including CM-H2DCFDA. CM-H2DCFDA is a probe for intracellular hydrogen peroxide (Jou M J et al. J. Biomed Sci 9:507 (2002)). CM-H2DCFDA rapidly diffuses into cells, reacts with intracellular glutathione and thiols, and yields a fluorescent product that is retained inside the cell (Shanker G et al. Mol Brain Res 128:48, 2004). The fluorescence intensity of CM-H2DCFDA is therefore indicative of the amount of intracellular H2O2.
Briefly, cells were incubated with 10 uM CM-H2DCFDA for 30 min at 37° C. The cells were then excited at the peak excitation wavelength for CM-H2DCFDA (485 nm) and emissions at 535 nm were measured with Wallac Victor multilable counter (Perkin Elmer). For glucose treatment, the total sugar content in the media was kept constant by supplementing with mannitol, which is not metabolized.
MCF-7 cells were obtained from ATCC and grown as recommended. Confluent MCF-7 cells were incubated with serum-free DMEM medium for 3-12 h before the experiment. MCF-7 cells were then treated with DNA-PK inhibitor NU 7026 (5 μM; Calbiochem) for 12 h, DNP (200 μM; Sigma) for 10 min, Troglitazone (30 μM) for 4 hr, Euk-134 (5 μM; Eukarion) for 3 h, MnTBAP (14 μM; Calbiochem) for 3 h and Resveratrol.

ATM, sequence (Q13315 whole entry, species assumed): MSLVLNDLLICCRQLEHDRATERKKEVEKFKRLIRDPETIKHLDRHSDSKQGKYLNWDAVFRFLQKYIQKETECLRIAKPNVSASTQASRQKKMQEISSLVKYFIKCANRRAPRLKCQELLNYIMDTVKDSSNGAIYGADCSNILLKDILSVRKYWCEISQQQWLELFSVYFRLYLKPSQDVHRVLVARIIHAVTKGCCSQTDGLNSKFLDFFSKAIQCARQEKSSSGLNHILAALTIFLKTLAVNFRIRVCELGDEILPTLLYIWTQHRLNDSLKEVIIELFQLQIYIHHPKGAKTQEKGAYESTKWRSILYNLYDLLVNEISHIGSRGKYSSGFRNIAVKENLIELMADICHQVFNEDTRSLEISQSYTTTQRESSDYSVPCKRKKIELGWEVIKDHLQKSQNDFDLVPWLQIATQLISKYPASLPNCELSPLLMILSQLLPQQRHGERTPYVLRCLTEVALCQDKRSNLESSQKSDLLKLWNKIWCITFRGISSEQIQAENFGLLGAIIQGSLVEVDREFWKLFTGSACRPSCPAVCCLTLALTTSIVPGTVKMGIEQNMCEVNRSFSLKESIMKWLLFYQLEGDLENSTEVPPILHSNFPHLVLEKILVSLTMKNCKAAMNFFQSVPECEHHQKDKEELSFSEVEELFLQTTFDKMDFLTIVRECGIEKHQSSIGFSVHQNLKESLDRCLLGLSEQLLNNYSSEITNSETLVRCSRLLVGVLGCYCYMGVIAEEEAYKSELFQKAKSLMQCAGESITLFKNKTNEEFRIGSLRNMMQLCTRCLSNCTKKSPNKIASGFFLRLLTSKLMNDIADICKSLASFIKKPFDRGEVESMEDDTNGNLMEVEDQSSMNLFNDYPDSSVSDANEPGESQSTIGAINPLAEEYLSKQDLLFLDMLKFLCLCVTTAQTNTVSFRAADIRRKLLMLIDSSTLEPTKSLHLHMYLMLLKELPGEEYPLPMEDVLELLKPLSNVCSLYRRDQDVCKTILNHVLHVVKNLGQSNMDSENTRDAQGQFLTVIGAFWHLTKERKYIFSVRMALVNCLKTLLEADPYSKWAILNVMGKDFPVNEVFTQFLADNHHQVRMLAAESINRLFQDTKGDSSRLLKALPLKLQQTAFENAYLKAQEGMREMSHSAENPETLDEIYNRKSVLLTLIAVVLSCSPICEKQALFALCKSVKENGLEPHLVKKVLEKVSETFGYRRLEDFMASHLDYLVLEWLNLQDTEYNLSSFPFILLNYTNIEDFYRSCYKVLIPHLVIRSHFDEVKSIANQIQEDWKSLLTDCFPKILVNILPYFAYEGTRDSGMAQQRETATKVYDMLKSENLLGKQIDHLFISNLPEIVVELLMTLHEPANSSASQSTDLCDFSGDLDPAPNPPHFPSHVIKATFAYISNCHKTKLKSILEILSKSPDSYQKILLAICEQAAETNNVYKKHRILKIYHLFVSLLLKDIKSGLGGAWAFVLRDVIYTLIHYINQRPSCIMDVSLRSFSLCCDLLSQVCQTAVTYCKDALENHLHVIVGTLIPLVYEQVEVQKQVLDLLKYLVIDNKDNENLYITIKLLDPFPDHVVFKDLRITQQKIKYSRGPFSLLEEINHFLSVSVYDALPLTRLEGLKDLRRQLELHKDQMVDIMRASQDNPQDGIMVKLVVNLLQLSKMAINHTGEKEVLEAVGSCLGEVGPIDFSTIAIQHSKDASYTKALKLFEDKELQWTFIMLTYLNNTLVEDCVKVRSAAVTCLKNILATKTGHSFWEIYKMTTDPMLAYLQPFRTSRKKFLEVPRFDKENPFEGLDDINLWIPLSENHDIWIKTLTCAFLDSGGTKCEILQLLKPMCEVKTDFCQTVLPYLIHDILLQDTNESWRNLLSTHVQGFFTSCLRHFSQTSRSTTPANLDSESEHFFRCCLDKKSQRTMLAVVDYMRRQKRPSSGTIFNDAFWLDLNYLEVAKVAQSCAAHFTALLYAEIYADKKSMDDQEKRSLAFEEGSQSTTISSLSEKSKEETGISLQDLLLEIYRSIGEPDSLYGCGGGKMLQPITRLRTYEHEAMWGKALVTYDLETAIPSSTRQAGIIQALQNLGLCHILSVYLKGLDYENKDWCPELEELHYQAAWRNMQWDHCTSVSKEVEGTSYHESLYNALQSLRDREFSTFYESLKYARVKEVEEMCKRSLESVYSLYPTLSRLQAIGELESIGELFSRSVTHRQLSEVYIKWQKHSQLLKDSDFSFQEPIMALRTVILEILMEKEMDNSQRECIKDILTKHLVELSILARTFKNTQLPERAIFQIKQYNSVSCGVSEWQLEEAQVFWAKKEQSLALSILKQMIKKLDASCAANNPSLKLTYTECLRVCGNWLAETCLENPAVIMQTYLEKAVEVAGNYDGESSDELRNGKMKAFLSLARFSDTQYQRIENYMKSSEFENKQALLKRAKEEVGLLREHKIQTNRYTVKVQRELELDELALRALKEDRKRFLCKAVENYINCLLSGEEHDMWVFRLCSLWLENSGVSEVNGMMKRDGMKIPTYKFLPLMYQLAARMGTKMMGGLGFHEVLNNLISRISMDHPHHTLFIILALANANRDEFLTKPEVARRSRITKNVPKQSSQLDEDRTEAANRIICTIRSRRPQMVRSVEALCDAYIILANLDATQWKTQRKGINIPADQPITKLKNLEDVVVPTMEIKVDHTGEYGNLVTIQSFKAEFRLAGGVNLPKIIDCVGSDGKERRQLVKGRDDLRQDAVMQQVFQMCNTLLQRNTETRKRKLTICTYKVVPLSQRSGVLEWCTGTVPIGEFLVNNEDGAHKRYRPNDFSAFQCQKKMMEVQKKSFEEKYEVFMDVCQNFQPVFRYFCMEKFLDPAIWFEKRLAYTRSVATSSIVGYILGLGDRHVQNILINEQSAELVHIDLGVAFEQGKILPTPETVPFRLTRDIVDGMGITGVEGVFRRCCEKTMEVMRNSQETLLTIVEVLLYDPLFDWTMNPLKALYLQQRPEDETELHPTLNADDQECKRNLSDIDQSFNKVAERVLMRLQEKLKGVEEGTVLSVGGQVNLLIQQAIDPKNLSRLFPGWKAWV

**Q.** For `O=c1cc(N2CCOCC2)oc2c1ccc1ccccc12` [NU7026, 2-(morpholin-4-yl)-benzo[h]chomen-4-one], which “LKB1 activation (LKB1 phosphorylation)” value (LKB1) is on record?
**A.** caused LKB1 activation

**Q.** What about the IC50 (ATM) of the same molecule?
**A.** > 100 µM

**Q.** What about the PGC-1α expression (PGC-1α) of the same molecule?
**A.** not able to induce PGC-1α expression

**Q.** And the serum glucose levels [1]?
**A.** decreased serum glucose levels

**Q.** And the “sensitization to topoisomerase II inhibitors” value (leukemic cells)?
**A.** sensitize leukemic cells to topoisomerase II inhibitors

**Q.** What about the “time remaining on a hot surface” value [2] of the same molecule?
**A.** remain on a hot surface for longer periods of time

**Q.** And the pain sensation ([2]; hot plate)?
**A.** decreased pain sensation

**Q.** And the levels of anxiety/depression (Elevated plus maze test; elevated plus maze and light/dark chamber tests, FIGS. 47 and 48)?
**A.** dramatically lower levels of anxiety/depression

**Q.** And the “time in closed arm of the elevated plus maze” value (Elevated plus maze test; treated vs untreated mice)?
**A.** less time in a closed arm

**Q.** And the “time in open arm of the elevated plus maze” value (Elevated plus maze test; treated vs untreated mice)?
**A.** more time in the open arm

**Q.** What about the AMPK activation (AMPK) of the same molecule?
**A.** activated AMPK

**Q.** And the “time in the dark compartment” value (Light/dark chamber test)?
**A.** less time in the dark compartment

**Q.** What about the “time in the light compartment” value (Light/dark chamber test) of the same molecule?
**A.** more time in the light compartment

**Q.** What about the “time to enter the light chamber” value (Light/dark chamber test) of the same molecule?
**A.** quicker to enter the light chamber

**Q.** What about the “Reactive oxygen species production” value (MCF7 cells) of the same molecule?
**A.** significantly decreased
